Measurements taken from patent publication US9333195B2 (priority 1999, dated 2016).
Where a name gives a salt, the structure may show the parent alone.

target: human muscarinic receptors Hm3 (Homo sapiens (Human), UniProt P20309); test: biochemical; type: binding; details: not given

Compound | IC50
O=C(O[C@H]1C[N+]2(CC=Cc3ccccc3)CCC1CC2)C(O)(c1ccccc1)c1ccco1 (mixture of isomers) [Example 17, 3(R)-(2-Furan-2-yl-2-hydroxy-2-phenylacetoxy)-1-(3-phenylallyl)-1-azoniabicyclo[2.2.2]octane; bromide] | 14 nM

same assay, conditions: read-out: BINDING TO RECEPTOR M3 (IC50 nM)

Compound | IC50
O=C(O[C@H]1C[N+]2(CCCOc3ccccc3)CCC1CC2)C(c1ccccc1)c1ccccc1 [Example 1, 3 (R)-Diphenylacetoxy-1-(3-phenoxypropyl)-1-azoniabicyclo[2.2. 2]octane; bromide] | 31 nM
CC(C(=O)O[C@H]1C[N+]2(CCCOc3ccccc3)CCC1CC2)(c1ccccc1)c1ccccc1 [Example 7, 3(R)-(2,2-Diphenylpropionyloxy)-1-(3-phenoxypropyl)-1-azoniabicyclo[2.2.2]octane; bromide] | 22 nM
O=C(O[C@H]1C[N+]2(CCCOc3ccccc3)CCC1CC2)C(O)(c1ccccc1)c1cccs1 (stereo partly drawn) [Example 8, 3(R)-(2-Hydroxy-2-phenyl-2-thien-2-ylacetoxy)-1-(3-phenoxypropyl)-1-azoniabicyclo[2.2.2]octane; bromide] | 4.8 nM
O=C(O[C@H]1C[N+]2(CCOc3ccccc3)CCC1CC2)C(O)(c1ccccc1)c1ccco1 (stereo partly drawn) [Example 18, 3(R)-(2-Furan-2-yl-2-hydroxy-2-phenylacetoxy)-1-(2-phenoxyethyl)-1-azoniabicyclo[2.2.2]octane; bromide] | 6.6 nM
O=C(O[C@H]1C[N+]2(CCCOc3ccccc3)CCC1CC2)C(O)(c1ccccc1)c1ccco1 (stereo partly drawn) [Example 20, 3(R)-(2-Furan-2-yl-2-hydroxy-2-phenylacetoxy)-1-(3-phenoxypropyl)-1-azoniabicyclo[2.2.2]octane; bromide] | 6.8 nM
O=C(O[C@H]1C[N+]2(CCCOc3ccccc3)CCC1CC2)C(c1cccs1)c1cccs1 [Example 35, 3(R)-(2,2-Dithien-2-ylacetoxy)-1-(3-phenoxypropyl)-1-azoniabicyclo[2.2.2]octane; bromide] | 13 nM
O=C(O[C@H]1C[N+]2(CCCCc3ccccc3)CCC1CC2)C(O)(c1cccs1)c1cccs1 [Example 39, 3(R)-(2-Hydroxy-2,2-dithien-2-ylacetoxy)-1-(4-phenylbutyl)-1-azoniabicyclo[2.2.2]octane; bromide] | 3.8 nM
O=C(O[C@H]1C[N+]2(CCCOc3ccc(F)cc3)CCC1CC2)C(O)(c1cccs1)c1cccs1 [Example 53, 1-[3-(4-Fluorophenoxy)propyl]-3(R)-(2-hydroxy-2,2-dithien-2-ylacetoxy)-1-azoniabicyclo[2.2.2]octane; chloride] | 5.6 nM
O=C(O[C@H]1C[N+]2(CCCOc3ccccc3O)CCC1CC2)C(O)(c1cccs1)c1cccs1 [Example 71, 3(R)-(2-Hydroxy-2,2-dithien-2-ylacetoxy)-1-[3-(2-hydroxyphenoxy)propyl]-1-azoniabicyclo[2.2.2]octane; trifluoroacetate] | 8.2 nM
O=C(O[C@H]1C[N+]2(CCCn3cccc3)CCC1CC2)C(O)(c1cccs1)c1cccs1 [Example 74, 3(R)-(2-Hydroxy-2,2-dithien-2-ylacetoxy)-1-(3-pyrrol-1-ylpropyl)-1-azoniabicyclo[2.2.2]octane; trifluoroacetate] | 16 nM
O=C(O[C@H]1C[N+]2(CCCc3cccs3)CCC1CC2)C(O)(c1cccs1)c1cccs1 [Example 78, 3(R)-(2-Hydroxy-2,2-dithien-2-ylacetoxy)-1-(3-thien-2-ylpropyl)-1-azoniabicyclo[2.2.2]octane; bromide] | 5 nM
O=C(O[C@H]1C[N+]2(CCOCc3ccccc3)CCC1CC2)C(O)(c1cccs1)c1cccs1 [Example 84, 1-(2-Benzyloxyethyl)-3(R)-(2-hydroxy-2,2-dithien-2-ylacetoxy)-1-azoniabicyclo[2.2.2]octane; trifluoroacetate] | 9.9 nM
O=C(O[C@H]1C[N+]2(CCCOc3ccccc3)CCC1CC2)C(O)(c1ccsc1)c1ccsc1 [Example 89, 3(R)-(2-Hydroxy-2,2-dithien-3-ylacetoxy)-1-(3-phenoxypropyl)-1-azoniabicyclo[2.2.2]octane; bromide] | 5.4 nM
CC1(C(=O)O[C@H]2C[N+]3(CC=Cc4ccccc4)CCC2CC3)c2ccccc2-c2ccccc21 [Example 114, 3(R)-(9-Methyl-9[H]-fluorene-9-carbonyloxy)-1-(3-phenylallyl)-1-azoniabicyclo[2.2.2]octane; bromide] | 14 nM
CC1(C(=O)O[C@H]2C[N+]3(CCCOc4ccccc4)CCC2CC3)c2ccccc2-c2ccccc21 [Example 116, 3(R)-(9-Methyl-9[H]-fluorene-9-carbonyloxy)-1-(3-phenoxypropyl)-1-azoniabicyclo[2.2.2]octane; bromide] | 23 nM
O=C(O[C@H]1C[N+]2(CCCc3cccs3)CCC1CC2)C1(O)c2ccccc2Oc2ccccc21 [Example 138, 3(R)-(9-Hydroxy-9H-xanthene-9-carbonyloxy)-1-(3-thien-2-ylpropyl)-1-azoniabicyclo[2.2.2]octane; bromide] | 19 nM
